From patent US20050037382A1, “Methods and compositions for treating and preventing autoimmune disorders” (priority 2003, published 2005)

System: chronic colitis induced by DSS treatment
Assay: Apyrase administration in DSS-induced chronic colitis (weight)
Assay type: in vivo, mice
Settings: apyrase 0.4 units/g weight at week five
Source text: Adult mice (55-75 day old) sex-matched hemizygous CD39+/−, CD39−/−, and CD39+/+ littermates were given 3-5% (w/v) DSS in drinking water for seven days to induce a pathological state reminiscent of acute ulcerative colitis. Mice were fasted on day 7, and sacrificed the next day. Tissue was collected for Haematoxylin and Eosin staining, immunohistochemistry staining (for CD39, CD39L1, P-selectin, Fibrin, and P2Y1, for example), Western blot analysis, and NTPDase activity. To induce chronic ulcerative colitis, mice were treated with 3% DSS for seven days followed by a one week rest period. DSS treatment was resumed for seven days followed by another rest period of seven days. Treatment was resumed in the fifth week for seven days. At least six age- and sex-matched hemizygous CD39+/−, CD39−/−, and CD39+/+ mice were studied at the end of seven days of DSS treatment (acute colitis) or 5 week DSS treatment (chronic colitis). Mice were housed in standard cages and were allowed to drink and feed ad libitum. Animals were weighed daily. To test the hypothesis that the administration of an NTPDase can delay the damage caused by colitis, CD39+/+ and CD39+/− mice, following the induction of chronic colitis by DSS treatment, were administered with apyrase, an NTPDase (see FIGS. 4A and 4B). Apyrase was administered at 0.4 units/g weight at week five following the initial treatment with DSS.

apyrase
weight following apyrase treatment (CD39+/+ mice): significant gain in weight | weight following apyrase treatment (CD39−/+ (hemizygous) mice, compared with effect in CD39+/+ mice): further enhanced
